Test results as given in patent US20060134124A1, “Immunosuppression” (ML Laboratories PLC, priority 1998, published 2006).

What was measured:
[1] = tested on: porcine B7-2 peptides; experiment: Peptide ELISA of sera from mice immunised with OVA-B7-2 chimeric peptides; type: in vivo, C57BL-6 mice; details: for binding of antisera to B7 peptide versus ova control by peptide ELISA: sera of mice that received a pool of all nine B7-2 peptides, FIG. 14a or 14b; for level of peptide-specific IgG in the sera of immunised mice: immunisation with peptide 4 or 6, FIGS. 15a and 15b
From the text: C57BL-6 mice are immunised with whole ovalbumin in CFA, followed by either control peptide (OVA peptide) or CS peptides (OVA-B7-2 constructs) for three weekly immunisations. Blood is collected following sacrifice and sera prepared using a standard technique. Presence of specific mouse anti-porcine B7-2 IgG and/or IgM Ab is detected by one of two strategies.
(§1) Peptide ELISAs are used to screen for the presence of anti-peptide antibody in the sera. Peptides are coated to plates by virtue of aldehyde linkages to allow free access of Ab to the peptide (78), Plates are coated with individual peptides or the ova control peptide to enable the identification of specific peptides of interest. To detect reactivity of sera with the native B7-2 molecule expressed on the surface of PoB7-2 transfected P815 cells, flow cytometry is performed following surface staining. Having identified CS peptide of interest (peptide ELISA positive and recognising native B7-2) the sera is used to inhibit in vitro T cell proliferative responses. This determines whether the antibody is a blocking antibody.
(§2) Immunisations involved two groups of mice, one received a pool of all nine B7-2 peptides, and one receiving ova control peptide. The harvested sera were screened by peptide ELISA (FIG. 14a or 14b) which enabled the identification of peptides of interest. […] Peptide 4 and 6 were selected as candidate peptides and used in subsequent immunisation protocol. […] Similar protocols will be followed with peptide 2.

[2] = tested on: T cell proliferation; experiment: T cell proliferation response to whole ovalbumin or OVA 323-339 peptide after immunisation with whole ovalbumin; type: in vivo, C57BL-6 mice; details: following immunisation with whole ovalbumin; FIG. 13
From the text: FIG. 13 represents a comparison of T cell proliferation response to whole ovalbumen or the ovalbumen peptide Ova323-339;
The peptide sequences and amino acid positions for peptides 1-10 relate to the position of the B7-2 peptide sequence within porcine B7-2. The amino acid position for the ova sequence is only indicated for the Ova peptide. A 17 amino acid peptide from chicken egg albumin (ovalbumin) was selected as the T cell epitope, OVA323-339 (ISQAVHAAHAEINEAGR). This epitope was selected on the basis of published reports for the generation of a H-2^b restricted T cell response (76, 77). […] Peptides were generated on a peptide synthesiser (Genosys) and crude peptides were purified by HPLC to greater than 70% purity.

[3] = tested on: direct mouse anti porcine T cell responses; experiment: Inhibition of in vitro T cell proliferative responses by peptide sera; type: cell-based; details: FIG. 15b
Protocol: as §1

[4] = target: T1, murine CD86 (Mus musculus, UniProt P42082); experiment: Inhibition of costimulation by murine CD86 by peptide sera; type: cell-based; details: FIG. 15b
T1 sequence (P42082 24-309): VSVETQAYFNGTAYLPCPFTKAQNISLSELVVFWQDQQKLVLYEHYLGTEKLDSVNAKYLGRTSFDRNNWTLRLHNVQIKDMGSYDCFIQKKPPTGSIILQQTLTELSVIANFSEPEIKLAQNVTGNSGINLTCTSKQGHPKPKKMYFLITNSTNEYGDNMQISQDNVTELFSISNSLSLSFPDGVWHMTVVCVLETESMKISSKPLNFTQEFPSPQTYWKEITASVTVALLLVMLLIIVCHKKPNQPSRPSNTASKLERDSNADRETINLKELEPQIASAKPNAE

[5] = tested on: native porcine B7-2 molecule expressed on the surface of porcine B7-2 transfected P815 cells; experiment: Flow cytometry of immunised-mouse sera on poB7-2 transfected P815 cells; type: binding; details: for recognition (staining) of porcine B7-2 transfected P815 cells by sera: sera of mice immunised with single peptide, FIGS. 17a and 17b
From the text: (II) Transfected P815 cells are crucial reagents for the detection of porcine anti-B7-2 antibody in the sera of immunised mice which have undergone the chimeric peptide immunisation regimen. Flow cytometric analysis with control or poB7-2-transfected P815 cells, reflects the specificity of sera for B7-2.
as §1, §2

Substance: ISQAVHAAHAEINEAGRLPCHFTNSQ [Peptide 2]
- binding of antisera to B7 peptide versus ova control by peptide ELISA [1]: preferential binding to B7 peptide than to ova control

Substance: ovalbumin [chicken egg albumin used whole for priming immunisation]
- proliferative response of C57BL-6 mice (H-2b haplotype) [2]: mount a proliferative response

Substance: ISQAVHAAHAEINEAGRGLVPIHQMS [Peptide 4]
- level of peptide-specific IgG in the sera of immunised mice [1]: significant level of IgG
- specificity of the sera for the peptide versus ova control ([1]; peptide ELISA, FIG. 16): specificity of the sera for peptide 4 and not to ova control
- binding of antisera to B7 peptide versus ova control by peptide ELISA [1]: preferential binding to B7 peptide than to ova control
- inhibition of direct mouse anti porcine T cell responses by sera [3]: inhibition of direct mouse anti porcine T cell responses
- inhibition of costimulation by murine CD86 by sera [4]: no inhibition
- recognition (staining) of porcine B7-2 transfected P815 cells by sera [5]: specifically recognise the native porcine B7-2 molecule
- staining of untransfected control P815 cells by sera [5]: do not stain

Substance: ISQAVHAAHAEINEAGR [Ova Peptide, control peptide, reference compound]
- recognition (staining) of porcine B7-2 transfected P815 cells by sera [5]: do not stain
- staining of untransfected control P815 cells by sera [5]: do not stain
- proliferative response of C57BL-6 mice (H-2b haplotype) [2]: mount a proliferative response

Substance: ISQAVHAAHAEINEAGRCSSTQGYPEPQR [Peptide 6]
- level of peptide-specific IgG in the sera of immunised mice [1]: significant level of IgG
- binding of antisera to B7 peptide versus ova control by peptide ELISA [1]: preferential binding to B7 peptide than to ova control
- inhibition of direct mouse anti porcine T cell responses by sera [3]: inhibition of direct mouse anti porcine T cell responses
- inhibition of costimulation by murine CD86 by sera [4]: no inhibition
- recognition (staining) of porcine B7-2 transfected P815 cells by sera [5]: specifically recognise the native porcine B7-2 molecule
- staining of untransfected control P815 cells by sera [5]: do not stain
